Measured values from ChEMBL document CHEMBL1154198, “Chemical genetics of Plasmodium falciparum” (Nature, 2010).

What was measured:
Plasmodium falciparum [1] = assay: ST_JUDE: Plasmodium falciparum 3D7 EC50 (uM) as measured by SYBR green dye; assay type: functional, organism-based
Plasmodium falciparum [2] = assay: ST_JUDE: Plasmodium falciparum K1 EC50 (uM) as measured by SYBR green dye; assay type: functional, organism-based

| Compound | EC50 (Plasmodium falciparum [1]) [µM] | EC50 (Plasmodium falciparum [2]) [µM] |
| --- | --- | --- |
| CCOc1cc(C2CC(=O)NC3=C2C(=O)CC(c2ccc(OC)c(OC)c2)C3)ccc1O (stereo not given) | 2.32 | 0.655 |
| O=C1CC(c2ccc(F)cc2F)C2=C(CC(c3ccc(F)cc3)CC2=O)N1 (stereo not given) | 4.71 | 0.73 |
| CCOc1ccc(NC(=O)c2sc3nc4n(c(=O)c3c2C)CCC4)cc1 | > 15 | > 15 |
| COc1ccc(S(=O)(=O)NC2=C/C(=N\c3ccc(NC(C)=O)cc3)C(=O)c3ccccc32)cc1 | 5.75 | 2.87 |
| O=C(Nc1cccc(C(F)(F)F)c1)c1cc(Cl)ccc1O | 0.973 | 1.2 |
| COc1ccc(C(=O)C2CCCN(Cc3ccc(OCCO)cc3)C2)cc1OC (stereo not given) | > 15 | > 15 |
| CCCNC(=O)C1CN1Cc1ccc(OC)cc1 (stereo not given) | 6.81 | 6.92 |
| CC(=O)N(C1=C(N(C)C)C(=O)c2ccccc2C1=O)c1ccc(I)cc1 | 0.0315 | 0.0458 |
| CCOC(=O)c1oc2c(c1C)-c1nn(Cc3ccc(C)cc3)cc1CC2 | 3.14 | 2.16 |
| CO/C(O)=C1\C(C)=NC2=C(C(=O)CC(c3ccccc3OC)C2)C1c1ccc([N+](=O)[O-])cc1 (stereo not given) | 3.83 | > 15 |
| CCC(=O)Oc1cccc2ccc(/C=C/c3cc4c(cc3Cl)OCO4)nc12 | > 15 | > 15 |
| O=C1C(NC2CCCCC2)=C(N2CCCCC2)C(=O)c2ccccc21 | 0.0191 | 0.0247 |
| CN1CCN(c2nc(Nc3ccc(F)cc3)c3cnn(-c4ccccc4)c3n2)CC1 | 1.49 | 4.27 |
| CC/C(=C\c1sc2ccc(OC)cc2[n+]1CC)SC | 1.33 | > 15 |
| CCOC(=O)c1ccc(NC(=O)CSc2nn3c(=O)c(C)nnc3s2)cc1 | > 15 | > 15 |
| Cc1sc(NC(=O)c2cc(-c3ccccn3)nc3ccc(Cl)cc23)c(C(N)=O)c1C | > 15 | > 15 |
| CC(C)N1CCN(Cc2ccc(C#CC(C)(C)O)cc2)CC1CCO (stereo not given) | > 15 | > 15 |
| COc1ccc(Nc2cc(C)nc(Nc3ccc(NS(=O)(=O)c4ccc(F)cc4)cc3)n2)cc1 | 1.55 | > 15 |
| COC(=O)c1c(S(=O)(=O)N2CCCC2)sc2c1CCN(Cc1c[nH]nc1-c1ccccc1)C2 | > 15 | > 15 |
| O=C1C(Nc2cccc(C(F)(F)F)c2)=C(N2CCCCC2)C(=O)c2ccccc21 | 0.852 | 1.49 |
| Oc1c(C(Nc2ccccn2)c2cccc(Cl)c2)cc(Cl)c2cccnc12 (stereo not given) | 7.66 | 4.69 |
| O=C(Cc1ccc(Cl)cc1)Nc1cc(C(F)(F)F)cc(C(F)(F)F)c1 | > 15 | 5.13 |
| COc1ccc(N2CCN(C3CCCN(Cc4cccc(SC)c4)C3)CC2)cc1 (stereo not given) | > 15 | > 15 |
| CCO/C(O)=C1\C(C)=NC2=C(C(=O)CC(c3ccc(OC)c(OC)c3)C2)C1c1cccc([N+](=O)[O-])c1 (stereo not given) | > 15 | > 15 |
| CSc1cccc(NC(=O)C2c3ccccc3C(=O)N(C3CCCC3)C2c2cccs2)c1 (stereo not given) | 0.578 | 0.949 |
| O=[N+]([O-])c1ccc(O)c(/N=C/C=C(\O)c2ccc(Cl)c(Cl)c2)c1 | > 15 | 1.65 |

| Compound | EC50 (Plasmodium falciparum [1]) [µM] | EC50 (Plasmodium falciparum [2]) [µM] |
| --- | --- | --- |
| CCN(CC)c1ccc(/C=C/C(=O)NCCN2CCC(N(C)C3CCCCC3C)CC2)cc1 (stereo not given) | 2.29 | > 15 |
| COc1ccc2sc(N(Cc3cccnc3)C(=O)c3ccc(Cl)cc3)nc2c1 | > 15 | > 15 |
| Oc1cccnc1NC(c1ccc(Cl)cc1)c1ccc2cccnc2c1O (stereo not given) | 3.76 | 5.59 |
| Cc1nc2ccc(/N=C/c3ccc(N(C)C)cc3)cc2s1 | > 15 | > 15 |
| CC1Cc2nc(SCC(=O)Nc3cccc(F)c3)n(C)c(=O)c2S1 (stereo not given) | 1.62 | 2.07 |
| CCCN(CCC)C(=O)c1ccc2c(Cl)c3c(nc2c1)CCCC3 | > 15 | > 15 |
| COc1ccc2nc(C)cc(Nc3ccc(N4CCOCC4)cc3)c2c1 | 4.69 | > 15 |
| CCOC(=O)C1=C(C)N=c2s/c(=C\c3ccc(O)c(OC)c3)c(=O)n2C1c1ccc(F)cc1 (stereo not given) | > 15 | 2.26 |
| CO/C(O)=C1\C(C)=NC2=C(C(=O)CC(c3ccccc3OC)C2)C1c1cccs1 (stereo not given) | 3.91 | 1.72 |
| Cc1ccc(S(=O)(=O)Oc2ccc(/C=N/N=C(N)N)cc2)cc1 | 1.18 | > 15 |
| Fc1ccc(-c2nc3ncccn3c2Nc2cccc(C(F)(F)F)c2)cc1 | 0.921 | 1.22 |
| COc1ccccc1N1CCN(C(CNS(=O)(=O)c2ccc(Cl)cc2)c2cccnc2)CC1 (stereo not given) | > 15 | 4.64 |
| O=C1C(Nc2cccc(Br)c2)=C(N2CCCCC2)C(=O)c2ccccc21 | 0.456 | 1.15 |
| C[n+]1ccn2c3c(c4cc(C5CCCCC5)ccc42)CCCc31 | > 15 | 2.34 |
| CC1=C(C)CC2C(=O)C3=C(C(=O)C2C1)C1c2ccccc2C3c2ccccc21 (stereo not given) | 3.15 | 1.62 |
| CC(=O)N1CCc2c(sc(NC(=O)c3ccc(C)c(C)c3)c2C(N)=O)C1 | > 15 | > 15 |
| Cc1ccc(Oc2nc(-c3ccncc3)nc3ccccc23)cc1 | 3.48 | 2.26 |
| O=[N+]([O-])c1cccc(NC(=S)Nc2ccc(OC(F)F)c(Cl)c2)c1 | 6.66 | 4.46 |
| Cc1cccc2sc(N(Cc3cccnc3)C(=O)C3CCCCC3)nc12 | 3.44 | 2.42 |
| Cc1cc(C)cc(Nc2nc(NCC3CCCO3)c3ccccc3n2)c1 (stereo not given) | 1.6 | 1.79 |
| COC(=O)Oc1ccc2c(=O)c(Oc3ccc4ccccc4c3)c(C(F)(F)F)oc2c1 | > 15 | > 15 |
| O=C(Nc1ccc(Cl)cc1C(O)c1ccccc1)c1cnn2c1NC(c1ccccc1)CC2C(F)(F)F (stereo not given) | 0.765 | 0.5 |
| CCC(=O)N1c2ccc(S(=O)(=O)CCC(=O)Nc3ccc(Br)c(C)c3)cc2CC1C (stereo not given) | > 15 | > 15 |
| CC(=O)N(C1=C(N(C)C)C(=O)c2ccccc2C1=O)c1ccc(C(=O)O)cc1 | 1.3 | 1.9 |
| COc1ccc2sc(N(Cc3cccnc3)C(=O)c3ccc(F)cc3)nc2c1 | > 15 | 1.49 |

Second part, the compound after the results:

| EC50 (Plasmodium falciparum [1]) [µM] | EC50 (Plasmodium falciparum [2]) [µM] | Compound |
| --- | --- | --- |
| 1.47 | 1.59 | COc1ccccc1Cn1ccnc1SCC(=O)Nc1cccc(C(F)(F)F)c1 |
| 0.503 | 0.612 | COc1ccc(OC)c(NC(=O)C2c3ccccc3C(=O)N(CC(C)C)C2c2cccs2)c1 (stereo not given) |
| > 15 | > 15 | Cc1cccc(-n2ccnc2SCC(=O)Nc2cc(C(F)(F)F)ccc2Cl)c1 |
| > 15 | > 15 | CCCCc1ccc(OCC(=O)N/N=C/c2cccc(OC)c2)cc1 |
| > 15 | > 15 | Cc1ccc(OCCCOc2cccc3ccc(C)nc23)c([N+](=O)[O-])c1 |
| 3.52 | 2.83 | C=CCN1C(=O)c2[nH]nc(-c3c(C)cc(C)cc3O)c2C1c1cccc(OCC)c1 (stereo not given) |
| 3.98 | > 15 | CCOc1ccc(C2c3cccn3CCN2C(=O)NCc2ccccc2)cc1 (stereo not given) |
| > 15 | > 15 | COC(=O)c1ccccc1NC(=O)c1ccc(Cn2cc(Cl)cn2)cc1 |
| > 15 | > 15 | COc1ccc(C2N(C)c3ccccc3N2C)cc1 |
| > 15 | > 15 | Cc1ccc(Nc2nc(N)c3ccccc3n2)cc1Cl |
| 1.97 | 0.725 | CCCCCCn1c(=N)n(CC(O)COc2cccc(C)c2)c2ccccc21 (stereo not given) |
| 2.84 | 1.22 | CCn1c2ccccc2c2cc(CN3CCN(Cc4cc(OC)ccc4O)CC3)ccc21 |
| 0.941 | 0.808 | CC(C)OCc1cc(CN2CCN(c3cccc(Cl)c3)CC2)c(O)c2ncccc12 |
| > 15 | > 15 | COc1cc(Cl)c(NC(=O)c2cc3ccccc3cc2O)c(OC)c1 |
| 3.81 | 4.14 | CCc1cccc(NC(=O)C2c3ccccc3C(=O)N(CCOC)C2c2cccs2)c1 (stereo not given) |
| > 15 | > 15 | CCOC(=O)C(C)Oc1cccc2c(=O)n(CC(=O)Nc3ccccc3C(F)(F)F)ccc12 (stereo not given) |
| > 15 | 5.24 | COc1ccc(-c2nn(C)c3sc(C(=O)Nc4cccc(SC)c4)cc23)cc1OC |

| EC50 (Plasmodium falciparum [1]) [µM] | EC50 (Plasmodium falciparum [2]) [µM] | Compound |
| --- | --- | --- |
| 0.13 | 0.2 | CSc1cccc(NC(=O)C2c3ccccc3C(=O)N(CC(C)C)C2c2cccs2)c1 (stereo not given) |
| 5.39 | 3.98 | COc1ccc(CCNC(=S)Nc2cccc(Cl)c2)cc1OC |
| 2.29 | > 15 | CCN(CC)c1cc(C)c2cc(NC(=O)c3ccc(OC)c(OC)c3)ccc2n1 |
| 4.14 | > 15 | COCC(C)Oc1cccc(CN(Cc2ccncc2)C(=O)/C=C/c2cccc(F)c2)c1 (stereo not given) |
| 3.76 | 3.44 | Oc1c(CN2CCN(c3ccccc3F)CC2)cc(Br)c2cccnc12 |
| 0.985 | 0.965 | Cc1cccc(/C=C2/Sc3ccc(C(=O)NCCN4CCN(c5cc(Cl)ccc5C)CC4)cc3N(C)C2=O)c1 |
| 5.72 | 1.91 | CCOc1ccc(Nc2c3ccccc3nc3ccccc23)cc1 |
| > 15 | > 15 | CCc1ccc2nc(N(Cc3cccnc3)C(C)=O)sc2c1 |
| > 15 | > 15 | COc1ccc(NC(=O)c2sc3ccccc3c2Cl)c(OC)c1 |
| > 15 | 4.42 | Cc1cccc(C2CC(=O)NC3=C2C(=O)CC(c2ccccc2Cl)C3)c1 (stereo not given) |
| 0.982 | 6.36 | CCOc1ccc2nc(C)cc(Nc3ccc(N4CCOCC4)cc3)c2c1 |
| 0.634 | 1.59 | CC1CCCCN1CCCNC(=O)c1ccc2c(c1)sc1nc(-c3ccc(F)cc3)cn12 (stereo not given) |
| 0.722 | 4.01 | C=CCn1c(SCC(=O)Nc2ccccc2OC)nc2sc(C)cc2c1=O |
| 1.41 | > 15 | CCCCOc1ccc(S(=O)(=O)Nc2ccc(Nc3nc(C)cc(N4CCCC4)n3)cc2)cc1 |
| 6.82 | 5.31 | Cc1cccc2sc(N(Cc3cccnc3)C(=O)c3ccco3)nc12 |
| 0.0145 | 0.0135 | CCCCOc1ccc(NC2=C(N3CCCCC3)C(=O)c3ccccc3C2=O)cc1 |
| 7.38 | > 15 | Cn1c(-c2ccccc2[N+](=O)[O-])[n+](C)c2ccccc21 |
